# Source: patent US10427133B2, “Absorbent article comprising cyclodextrin complexes” (The Procter & Gamble Company, priority 2016, dated 2019)
# Assay: Fragrance (OCOC) release from cyclodextrin complexes on feminine hygiene pad, SPME-GC/MS headspace
# Format: physicochemical
# Conditions: 1.00 mL water, headspace at 5, 10, 30 min, FIG. 2
# Source text: The results are shown in the graph of FIG. 2. After dosing with water the headspace was sampled using Solid Phase Micro-Extraction (a suitable fiber assembly is a 2 cm Stableflex 24 Ga, 50/30 μm DVB/CAR/PDMS available from Supelco, Pa. or equivalent) followed by gas chromatography/mass spectrometry (a suitable unit is the 5777A Mass Selective Detector (MSD) also available from Agilent, or equivalent) with a GERSTEL Multipurpose Sampler (Gerstel, Liticumo, Md. or equivalent) to quantify the OCOC release.
# The model OCOC used is a neat mixture of benzaldehyde (1.6 g, 15.08 mmols), ligustral (1.6 g, 11.58 mmols), citral (1.6 g, 10.51 mmols), cinnamic aldehyde (1.6 g, 12.11 mmols), and florhydral (1.6 g, 8.41 mmols). All components are available from Sigma Aldrich, or equivalent. The mixture is homogenized before use.
# The Standard Pad Substrates are prepared by cutting a 10 cm lateral strip across the whole product centered at the longitudinal center of an Always Ultra normal size pad.
# A mixture of the model OCOC for each β-cyclodextrin type was solubilized in water at a one-to-one molar ratio (β-cyclodextrin/OCOC). The amount of water used for the complexation was adjusted for each β-cyclodextrin type according to its individual water solubility to ensure complete dissolution of the β-cyclodextrin complex. Each mixture of β-cyclodextrin and OCOC in water was thoroughly homogenized. […]
SMILES,Percent release of fragrance versus conventional β-cyclodextrin complex,"Release of fragrance versus 2,3,6-trimethyl-β-cyclodextrin complex"
"COC[C@H]1O[C@@H]2O[C@H]3[C@H](O)[C@@H](OC)[C@@H](O[C@H]4[C@H](O)[C@@H](OC)[C@@H](O[C@H]5[C@H](O)[C@@H](OC)[C@@H](O[C@H]6[C@H](O)[C@@H](OC)[C@@H](O[C@H]7[C@H](O)[C@@H](OC)[C@@H](O[C@H]8[C@H](O)[C@@H](OC)[C@@H](O[C@H]1[C@H](O)[C@H]2OC)O[C@@H]8COC)O[C@@H]7COC)O[C@@H]6COC)O[C@@H]5COC)O[C@@H]4COC)O[C@@H]3COC [2,6-dimethyl-β-cyclodextrin, 2,6-Di-O-methyl-β-cyclodextrin]",much higher percent release of fragrance than does conventional β-cyclodextrin,"much higher release of fragrance than does 2, 3, 6-trimethyl-β-cyclodextrin"

# Assay: Thiol Vapor Pressure Suppression (TVPS) index measurement, zNose fast GC headspace
# Conditions: 5 μl compound, 100 μl 1% v/v butanethiol in ethanol, 37° C. for 4 hours
# Source text: Thiol Vapor Pressure Suppression (TVPS) index is a measure of the reduction in butanethiol concentration in the headspace by a compound, as measured using a fast GC instrument, the zNose 7100 (Electronic Sensor Technologies, Newbury Park, Calif.).
# Thiol Vapor Pressure Suppression (TVPS) index is a measure of the reduction in butanethiol concentration in the headspace by a compound, as measured using a fast GC instrument, the zNose 7100 (Electronic Sensor Technologies, Newbury Park, Calif.) based on an Surface Acoustic Wave (SAW) Quartz microbalance detector, or equivalent.
# Before any measurements the instrument is calibrated according to manufacturer's instructions under the same experimental settings. The instrument has a DB-5 column (also available from Electronic Sensor Technologies, Newbury Park, Calif.) 1 m in length, 0.25 μm phase thickness, and 0.25 mm in diameter.
# For analysis, the zNose is programmed with the Sensor Temperature, Inlet Temperature, Valve Temperature, and Initial Column Temperature all set to 40° C. The oven is temperature gradient is programmed at a rate of 10° C./s from 40° C. to a final temperature of 200° C.
# TVPS of a compound is measured in the following way: 100 μl±1 μl of a 1% v/v butanethiol (99%, purity, available from Sigma-Aldrich, St. Louis, Mo.) solution in ethanol (200 proof) is added into a 1 ml vial (8×40 mm). These vials are borosilcate glass straight walled vial. In another 1 ml vial (8×40 mm), 5 μl±0.2 μl of the compound is added. Both open vials are then placed inside a 20 mL headspace vial (22×75 mm), and the vial is immediately sealed using a screw thread closure with PTFE/Silicone septa. The vial is heated to 37° C. for 4 hours. After 4 hours, the vial is removed from the oven and let to equilibrate at 25° C.±2° C. for 15 minutes. The headspace inside the vial is sampled using the zNose is sampled for 10 s and analyzed following the experimental protocol outlined above. Samples with butanethiol alone, and the volatile active alone, are run using the same protocol to identify the peaks for both materials. An acceptable retention index for butanethiol is 720±30. If the peaks butanethiol peak and the volatile material peak co-elute, one skilled in the art can modify the protocol settings to separate those peaks to achieve a minimum resolution of 1.5. For example one can change the column temperature ramp rate. In between samples, the instrument needs to be cleaned to remove any trace materials. To clean the instrument, the instrument is run without samples as needed until no peaks greater than 100 counts are observed.
# The amount of butanethiol in the headspace is measured from the area of the peak on the chromatograph for butanethiol (ABtSH,Rx). To calculate the percentage of butanethiol reduction in the headspace, a control with the butanethiol solution without the volatile material is run in the same manner and the area is measured as well (ABtSH,C). TVPS is then measured as the percentage reduction in butanethiol area calculated using the following formula: […]
row,SMILES,TVPS (percentage reduction in butanethiol headspace peak area)
1,Cc1ccc(C=O)s1 [5-methyl-2-thiophene-carboxaldehyde],67.4
2,C=CC(C)CCC=C(C)CCC=O (centres unmarked) [Floral Super],52.4
3,CC(C)c1cccc(C(C)CC=O)c1 (centres unmarked) [Florhydral],53.3
4,CCCCCCC(C=O)=Cc1ccccc1 [Hexylcinnamic aldehyde],8.0
5,CC(C)=CCCC(C)CCCC(C)C=O (centres unmarked) [adoxal],24.4
6,CC1=CC(C)C(C=O)CC1 (centres unmarked) [ligustral],42.5
7,CC(C)=CCCC(C)C=O (centres unmarked) [melonal],20.4
8,CC(C)=CCC/C(C)=C\C=O [neral],17.1
9,CCC/C=C/C=O [trans-2-hexenal],27.1
